#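 Grown in 96-well plates, cells were treated for 48 hours with each compound at five concentrations. Insufficient inhibition: endpoint recorded as highest concentration tested. GI50: concentration for 50% inhibition of growth.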 The source made the active and inactive calls. Cut-off read from the data, not from the text of the source: active = GI50 up to about 1.1 µM and inactive = higher.
# Columns and labels:
# Assay in all cases: growth of human tumour cells (NCI), 48 h
# HT-29 = system: HT-29
# RXF 393 = system: RXF 393
# SK-MEL-28 = system: SK-MEL-28
# UACC-62 = system: UACC-62
# SF-295 = system: SF-295
# U-251 = system: U-251
# A549 = system: A549
# NCI-H226 = system: NCI-H226
# HOP-18 = system: HOP-18
# OVCAR-8 = system: OVCAR-8
# M19-MEL = system: M19-MEL
# NCI-H460 = system: NCI-H460
# HL-60 = system: HL-60
# SNB-78 = system: SNB-78
# HCC 2998 = system: HCC 2998
# K562 = system: K562
# HCT-116 = system: HCT-116
# SK-OV-3 = system: SK-OV-3
# NCI-H522 = system: NCI-H522
# TK-10 = system: TK-10
# CCRF-CEM = system: CCRF-CEM
# DMS-114 = system: DMS-114
# OVCAR-4 = system: OVCAR-4
# SK-MEL-2 = system: SK-MEL-2
# SF-539 = system: SF-539
# OVCAR-3 = system: OVCAR-3
# Malme-3M = system: Malme-3M
# ACHN = system: ACHN
# MOLT-4 = system: MOLT-4
# XF498 = system: XF498
# UO-31 = system: UO-31
# KM12 = system: KM12
# NCI-H23 = system: NCI-H23
# SK-MEL-5 = system: SK-MEL-5
# SN12C = system: SN12C
# HCT-15 = system: HCT-15
# SF-268 = system: SF-268
# LXFL 529 = system: LXFL 529
# SNB-75 = system: SNB-75
# UACC-257 = system: UACC-257
# SNB-19 = system: SNB-19
# IGROV-1 = system: IGROV-1
# LOX IMVI = system: LOX IMVI
# KM-20L2 = system: KM-20L2
# A498 = system: A498
# CAKI-1 = system: CAKI-1
# SW-620 = system: SW-620
# NCI/ADR-RES = system: NCI/ADR-RES
# COLO 205 = system: COLO 205
# DMS-273 = system: DMS-273
# RPMI-8226 = system: RPMI-8226
# OVCAR-5 = system: OVCAR-5
# EKVX = system: EKVX
# HOP-62 = system: HOP-62
# DLD-1 = system: DLD-1
# HOP-92 = system: HOP-92
# MCF7 = system: MCF7
# M14 = system: M14
# SR = system: SR
# 786-0 = system: 786-0
smiles,measurement,setting,value
CN(C)c1nc(N(C)C)nc(N(C)CN(C)c2ccccc2)n1,GI50,HT-29,> 100 µM (inactive)
same,GI50,RXF 393,> 100 µM (inactive)
same,GI50,SK-MEL-28,> 100 µM (inactive)
same,GI50,UACC-62,> 100 µM (inactive)
same,GI50,SF-295,> 100 µM (inactive)
same,GI50,U-251,> 100 µM (inactive)
same,GI50,A549,> 100 µM (inactive)
same,GI50,NCI-H226,> 100 µM (inactive)
same,GI50,HOP-18,> 100 µM (inactive)
same,GI50,OVCAR-8,> 100 µM (inactive)
same,GI50,M19-MEL,> 100 µM (inactive)
same,GI50,NCI-H460,> 100 µM (inactive)
same,GI50,HL-60,> 100 µM (inactive)
same,GI50,SNB-78,> 100 µM (inactive)
same,GI50,HCC 2998,64.4 µM (inactive)
same,GI50,K562,> 100 µM (inactive)
same,GI50,HCT-116,> 100 µM (inactive)
same,GI50,SK-OV-3,> 100 µM (inactive)
same,GI50,NCI-H522,> 100 µM (inactive)
same,GI50,TK-10,> 100 µM (inactive)
same,GI50,CCRF-CEM,> 100 µM (inactive)
same,GI50,DMS-114,63.5 µM (inactive)
same,GI50,OVCAR-4,> 100 µM (inactive)
same,GI50,SK-MEL-2,> 100 µM (inactive)
same,GI50,SF-539,> 100 µM (inactive)
same,GI50,OVCAR-3,> 100 µM (inactive)
same,GI50,Malme-3M,> 100 µM (inactive)
same,GI50,ACHN,> 100 µM (inactive)
same,GI50,MOLT-4,> 100 µM (inactive)
same,GI50,XF498,> 100 µM (inactive)
same,GI50,UO-31,> 100 µM (inactive)
same,GI50,KM12,> 100 µM (inactive)
same,GI50,NCI-H23,> 100 µM (inactive)
same,GI50,SK-MEL-5,88.7 µM (inactive)
same,GI50,SN12C,> 100 µM (inactive)
same,GI50,HCT-15,> 100 µM
same,GI50,SF-268,> 100 µM (inactive)
same,GI50,LXFL 529,> 100 µM (inactive)
same,GI50,SNB-75,> 100 µM (inactive)
same,GI50,UACC-257,> 100 µM (inactive)
same,GI50,SNB-19,> 100 µM (inactive)
same,GI50,IGROV-1,> 100 µM (inactive)
same,GI50,LOX IMVI,> 100 µM (inactive)
COc1cc2c(cc1Oc1ccc(OC)c3c1CC1c4c(cc(OC)c(OC)c4-3)CCN1C)CC1c3c(cc(OC)c(OC)c3-2)CCN1C (stereo not given),GI50,HT-29,0.35 µM (active)
same,GI50,RXF 393,1.52 µM (inactive)
same,GI50,SK-MEL-28,1.82 µM (inactive)
same,GI50,UACC-62,1.97 µM (inactive)
same,GI50,KM-20L2,0.957 µM (active)
same,GI50,SF-295,2.54 µM (inactive)
same,GI50,U-251,1.79 µM (inactive)
same,GI50,A549,11.9 µM (inactive)
same,GI50,NCI-H226,1.53 µM (inactive)
same,GI50,A498,2.77 µM (inactive)
same,GI50,HOP-18,14 µM (inactive)
same,GI50,OVCAR-8,5.3 µM (inactive)
same,GI50,CAKI-1,2.1 µM (inactive)
same,GI50,SW-620,1.95 µM (inactive)
same,GI50,NCI/ADR-RES,4.51 µM (inactive)
same,GI50,M19-MEL,1.74 µM (inactive)
same,GI50,COLO 205,1.48 µM (inactive)
same,GI50,DMS-273,1.02 µM (active)
same,GI50,NCI-H460,1.7 µM (inactive)
same,GI50,RPMI-8226,0.221 µM (active)
same,GI50,HL-60,0.968 µM (active)
same,GI50,SNB-78,7.01 µM (inactive)
same,GI50,OVCAR-5,6.05 µM (inactive)
same,GI50,HCC 2998,2.41 µM (inactive)
same,GI50,K562,1.39 µM (inactive)
same,GI50,HCT-116,1.77 µM (inactive)
same,GI50,SK-OV-3,17.8 µM (inactive)
same,GI50,NCI-H522,2.09 µM (inactive)
same,GI50,CCRF-CEM,2.45 µM (inactive)
same,GI50,EKVX,3.18 µM (inactive)
same,GI50,HOP-62,17.1 µM (inactive)
same,GI50,OVCAR-4,2.74 µM (inactive)
same,GI50,SK-MEL-2,1.74 µM (inactive)
same,GI50,SF-539,1.72 µM (inactive)
same,GI50,OVCAR-3,4.95 µM (inactive)
same,GI50,Malme-3M,1.85 µM (inactive)
same,GI50,DLD-1,2.23 µM (inactive)
same,GI50,MOLT-4,1.25 µM (inactive)
same,GI50,XF498,1.98 µM (inactive)
same,GI50,UO-31,3.88 µM (inactive)
same,GI50,KM12,2.35 µM (inactive)
same,GI50,HOP-92,2.34 µM (inactive)
same,GI50,NCI-H23,10.7 µM (inactive)
same,GI50,SK-MEL-5,1.64 µM (inactive)
same,GI50,MCF7,3.08 µM (inactive)
same,GI50,SN12C,6.59 µM (inactive)
same,GI50,HCT-15,2.02 µM
same,GI50,SF-268,2.33 µM (inactive)
same,GI50,SNB-75,2.26 µM (inactive)
same,GI50,UACC-257,1.65 µM (inactive)
same,GI50,SNB-19,5.69 µM (inactive)
same,GI50,IGROV-1,3.86 µM (inactive)
same,GI50,LOX IMVI,0.234 µM (active)
C=CC(Br)(CBr)CCC(Br)C(C)(C)Br (stereo not given),GI50,HT-29,13.2 µM (inactive)
same,GI50,RXF 393,14.7 µM (inactive)
same,GI50,SK-MEL-28,15.9 µM (inactive)
same,GI50,UACC-62,12 µM (inactive)
same,GI50,SF-295,4.42 µM (inactive)
same,GI50,U-251,14.2 µM (inactive)
same,GI50,A549,14.6 µM (inactive)
same,GI50,NCI-H226,18.1 µM (inactive)
same,GI50,HOP-18,15.5 µM (inactive)
same,GI50,OVCAR-8,15.7 µM (inactive)
same,GI50,CAKI-1,22.8 µM (inactive)
same,GI50,SW-620,13.7 µM (inactive)
same,GI50,M19-MEL,14.3 µM (inactive)
same,GI50,M14,15 µM (inactive)
same,GI50,COLO 205,15 µM (inactive)
same,GI50,DMS-273,10.7 µM (inactive)
same,GI50,NCI-H460,10.4 µM (inactive)
same,GI50,RPMI-8226,2.79 µM (inactive)
same,GI50,SNB-78,5.56 µM (inactive)
same,GI50,OVCAR-5,18.5 µM (inactive)
same,GI50,K562,17.3 µM (inactive)
same,GI50,SR,3.81 µM (inactive)
same,GI50,HCT-116,14.5 µM (inactive)
same,GI50,SK-OV-3,19.4 µM (inactive)
same,GI50,NCI-H522,15.8 µM (inactive)
same,GI50,TK-10,16.4 µM (inactive)
same,GI50,HOP-62,21 µM (inactive)
same,GI50,DMS-114,11.6 µM (inactive)
same,GI50,OVCAR-4,17.1 µM (inactive)
same,GI50,SK-MEL-2,13.6 µM (inactive)
same,GI50,SF-539,15.9 µM (inactive)
same,GI50,Malme-3M,16.6 µM (inactive)
same,GI50,DLD-1,17.2 µM (inactive)
same,GI50,786-0,12.9 µM (inactive)
same,GI50,ACHN,12.7 µM (inactive)
same,GI50,MOLT-4,9.51 µM (inactive)
same,GI50,UO-31,15.2 µM (inactive)
same,GI50,KM12,9.14 µM (inactive)
same,GI50,HOP-92,15.7 µM (inactive)
same,GI50,NCI-H23,15.7 µM (inactive)
same,GI50,SK-MEL-5,14.5 µM (inactive)
same,GI50,SN12C,15.6 µM (inactive)
same,GI50,HCT-15,16.5 µM
same,GI50,SF-268,17.1 µM (inactive)
same,GI50,LXFL 529,14.5 µM (inactive)
same,GI50,SNB-75,10.3 µM (inactive)
same,GI50,UACC-257,13.9 µM (inactive)
same,GI50,IGROV-1,15.2 µM (inactive)
same,GI50,LOX IMVI,12.4 µM (inactive)

# Reference: ChEMBL document CHEMBL1201862, “PubChem BioAssay data set” (2004)
